Measured values from patent US12391679B2, “Benzamide-substituted bicyclic imidazo- and pyrazolo-fused -pyridine, -pyrimide, and -pyridazine compounds for treatment of inflammatory diseases” (ONCO3R Therapeutics BV, priority 2019, dated 2025).

Columns and labels:
SIK2 = biological target: T1, SIK2 (Homo sapiens, UniProt Q9H0K1); experiment: ADP-Glo kinase assay, SIK2; format: biochemical
T1 construct: purchased ThermoFisher Scientific PV4792
In short: (§1)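 Luminescent ADP-formation read-out: enzyme–substrate mix + ATP, 120 min RT; ATP depletion 40 min RT; ADP→ATP conversion with luciferase/luciferin 30 min RT. Controls: 1% DMSO (negative), 10 μM staurosporine final (positive).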

SIK1 = biological target: T2, SIK1 (Homo sapiens, UniProt P57059); experiment: ADP-Glo kinase assay, SIK1; format: biochemical
T2 construct: purchased Carna Biosciences 02-131
In short: as §1

[1] = system: LPS-induced TNFα in monocytes; experiment: Monocytes assay: LPS-triggered TNFα (ELISA); format: cell-based, human; settings: Homo sapiens, Monocyte, LPS-triggered TNFα inhibition
Description: This assay evaluates illustrative compounds of the invention for their inhibition of LPS-induced TNFα and LPS triggered IL-10 secretion in monocytes.
PBMCs are isolated from human blood samples (buffycoats). The buffy coat is aseptically transferred into a 50 mL Falcon tube, and diluted 1/2 in PBS. Falcon tubes are filled with 20 mL Lymphoprep™, on top of which 25 mL of the buffy coat is carefully added, tubes are centrifuged for 35 min at 400 g in temperature controlled centrifuge, without brake, at 25° C. PBMCs are aspirated from the white interface layer between sample and Lymphoprep™. PBMCs are washed five times in PBS.
PBMCs are centrifuged at 300×g for 10 min and resuspended at a density of 1.0*10^7 cells/80 μL Miltenyi buffer (PBS, pH 7.4, 1% FBS, 2 mM EDTA).
Starting from this point of the protocol all steps are performed on ice. 20 μL of CD14+ micro-beads are added per 1.0*10^7 cells, the tube is mixed and incubated for 15 min in the fridge at 4° C. Cell suspension volume is adjusted to total volume of 100 mL using Miltenyi buffer, mixed gently and subsequently centrifuged for 10 min at 300×g. Supernatant is discarded and cell pellet is resuspended in 12 mL of Miltenyi buffer.
Four LS columns are placed in the MACS Separator (magnet) from Miltenyi Biotec, and are prewet by rinsing with 3 mL of MACS buffer per column. Three mL of cell suspension is added onto the column (max 1*10^8 of labelled cells/column), and columns are subsequently washed 3 times with 3 mL of Miltenyi buffer.
The columns are removed from the magnets, and 5 mL of Miltenyi buffer are added to the column to flush out the CD14+ fraction by pushing the plunger into the column. The flushed fractions are collected in a fresh 50 mL Falcon and volume is adjusted to 30 mL using Miltenyi buffer, cells are centrifuged for 10 min at 300×g. The obtained cell pellet is resuspended in 10 mL RPMI w/o FBS, and cell density is determined using a hematologic analyser (Sysmex XS-500i).
A compound dilution plate is made in 100% DMSO by 3-fold dilution of 10 mM stock solution. An intermediate dilution plate (10× final concentration) is made by diluting the compound dilution plate 50-fold in RPMI medium.
10 μL of the 10× final concentration compound is added to the cells and incubated for 1 h at 37° C. before addition of trigger. No trigger conditions/trigger conditions are spiked with equal final DMSO concentrations of 0.2% DMSO. 10 μL of 10×LPS (final conc. 200 ng/mL) solution are added to all wells except for the ‘no trigger wells’ where 10 μL medium is added. Supernatant is collected after 4 h of LPS triggering.
The plate is then washed once with PBST (PBS+0.05% Tween20) and once with PBS followed by the addition of 100 μL of blocking buffer (1% Bovine Serum Albumin (BSA)-5% Sucrose) and plates are sealed and incubated for at least 4 h at RT. After washing the plate once with PBST and once with PBS, […]. Plates are washed twice with PBST, and once with PBS, after which 35 μL of the detection antibody is added (final concentration 0.25 μg/mL diluted in dilution buffer) and plates are incubated for at least 2 h at RT. Plates are washed twice with PBST, and once with PBS, whereafter 35 μL of Strep-HRP conjugate (0.5 μg/mL final concentration diluted in dilution buffer) is added. Plates are incubated in the dark, at RT for at least 45 min but no longer than 1 h. Plates are washed twice with PBST, and once with PBS. Thereafter, 50 μL of luminol substrate is added to each well (prepared according to manufacturer's instructions), and incubated for 5 min at RT protected from light.
To measure the inhibition of LPS induced TNFα, percentage inhibition (PIN) values are calculated for all concentrations tested, compared to controls.

SIK3 = biological target: T3, SIK3 (Homo sapiens, UniProt Q9Y2K2); experiment: ADP-Glo kinase assay, SIK3; format: biochemical
T3 construct: purchased SignalChem S12-11G-100
In short: as §1

T1 sequence (Q9H0K1 whole entry): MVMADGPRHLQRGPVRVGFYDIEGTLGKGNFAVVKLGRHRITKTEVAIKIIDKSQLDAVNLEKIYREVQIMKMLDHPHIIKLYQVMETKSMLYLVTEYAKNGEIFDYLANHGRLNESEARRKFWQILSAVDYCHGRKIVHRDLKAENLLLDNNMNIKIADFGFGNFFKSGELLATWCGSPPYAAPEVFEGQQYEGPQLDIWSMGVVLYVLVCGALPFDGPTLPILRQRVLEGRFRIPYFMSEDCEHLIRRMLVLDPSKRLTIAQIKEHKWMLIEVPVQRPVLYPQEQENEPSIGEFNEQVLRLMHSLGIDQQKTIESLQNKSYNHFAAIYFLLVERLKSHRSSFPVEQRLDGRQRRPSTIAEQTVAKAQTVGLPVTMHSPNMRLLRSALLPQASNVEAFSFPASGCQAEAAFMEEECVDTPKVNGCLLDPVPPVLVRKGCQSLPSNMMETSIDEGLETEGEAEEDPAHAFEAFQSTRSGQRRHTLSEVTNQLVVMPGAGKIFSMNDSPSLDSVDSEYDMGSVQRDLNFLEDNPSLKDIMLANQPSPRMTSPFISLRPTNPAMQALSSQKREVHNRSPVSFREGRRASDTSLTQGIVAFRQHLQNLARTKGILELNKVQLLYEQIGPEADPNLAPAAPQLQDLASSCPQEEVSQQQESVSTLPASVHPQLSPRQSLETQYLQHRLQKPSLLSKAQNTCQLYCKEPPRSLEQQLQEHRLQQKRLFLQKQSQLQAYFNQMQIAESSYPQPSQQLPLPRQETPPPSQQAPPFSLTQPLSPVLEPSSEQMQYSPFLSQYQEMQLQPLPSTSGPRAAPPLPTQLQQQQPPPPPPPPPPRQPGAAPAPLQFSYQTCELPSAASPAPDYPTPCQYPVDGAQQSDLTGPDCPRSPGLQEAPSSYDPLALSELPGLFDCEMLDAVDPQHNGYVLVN
T3 sequence (Q9Y2K2 59-365 limits assumed): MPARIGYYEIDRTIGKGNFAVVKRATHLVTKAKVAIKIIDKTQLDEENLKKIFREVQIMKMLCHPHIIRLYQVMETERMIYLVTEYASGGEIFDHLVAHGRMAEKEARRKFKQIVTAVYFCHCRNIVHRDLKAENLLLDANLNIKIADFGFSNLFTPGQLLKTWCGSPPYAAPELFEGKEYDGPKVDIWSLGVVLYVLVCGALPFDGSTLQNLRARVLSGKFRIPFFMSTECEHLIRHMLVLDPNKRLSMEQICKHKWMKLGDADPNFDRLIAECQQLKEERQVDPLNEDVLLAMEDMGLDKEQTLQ
T2 sequence (P57059 whole entry): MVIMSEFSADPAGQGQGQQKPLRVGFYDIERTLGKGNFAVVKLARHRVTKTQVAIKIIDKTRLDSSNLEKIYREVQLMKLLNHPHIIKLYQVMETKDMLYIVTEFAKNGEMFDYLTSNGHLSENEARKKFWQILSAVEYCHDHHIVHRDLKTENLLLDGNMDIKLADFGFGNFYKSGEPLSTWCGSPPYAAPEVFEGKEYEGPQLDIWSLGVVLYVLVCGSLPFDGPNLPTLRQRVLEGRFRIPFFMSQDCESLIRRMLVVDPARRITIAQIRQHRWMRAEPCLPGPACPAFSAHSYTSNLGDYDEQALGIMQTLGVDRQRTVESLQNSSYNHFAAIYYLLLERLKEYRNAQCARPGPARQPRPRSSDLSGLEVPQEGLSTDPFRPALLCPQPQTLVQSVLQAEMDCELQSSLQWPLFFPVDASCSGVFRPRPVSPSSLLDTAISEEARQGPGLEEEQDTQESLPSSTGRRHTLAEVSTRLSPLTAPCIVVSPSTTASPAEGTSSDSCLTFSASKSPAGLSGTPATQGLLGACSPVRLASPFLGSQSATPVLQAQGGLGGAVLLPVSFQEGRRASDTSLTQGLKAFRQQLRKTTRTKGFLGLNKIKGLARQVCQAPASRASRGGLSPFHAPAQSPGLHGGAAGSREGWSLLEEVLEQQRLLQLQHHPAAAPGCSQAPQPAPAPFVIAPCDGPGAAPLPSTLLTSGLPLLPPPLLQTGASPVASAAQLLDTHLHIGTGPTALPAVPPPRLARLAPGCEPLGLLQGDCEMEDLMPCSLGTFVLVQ

| IC50 (SIK2) [nM] | IC50 (SIK1) [nM] | EC50 [1] [nM] | IC50 (SIK3) [nM] | SMILES |
| --- | --- | --- | --- | --- |
| > 500 | > 500 | 1000 to 5000 | 10 to 100 | COc1cc(-c2cnc3cc(C(C)(C)C(C)O)ccn23)cc(OC)c1C(=O)NCC(F)(F)F (stereo not drawn) [Cpd 62, 4-[7-(2-hydroxy-1,1-dimethyl-propyl)imidazo[1,2-a]pyridin-3-yl]-2,6-dimethoxy-N-(2,2,2-trifluoroethyl)benzamide] |
| > 500 | > 500 | 1000 to 5000 | 10 to 100 | COc1cc(-c2cnc3cc(C(C)N4CCOCC4)ccn23)cc(OC(F)F)c1C(=O)NC1CC1 (stereo not drawn) [Cpd 139, N-cyclopropyl-2-(difluoromethoxy)-6-methoxy-4-[7-(1-morpholinoethyl)imidazo[1,2-a]pyridin-3-yl]benzamide] |
| 0.01 to 10 | 0.01 to 10 | 0.1 to 100 | 0.01 to 10 | COc1cc(-c2cnc3cc(C(C)(O)CC#N)ccn23)cc(OC(F)F)c1C(=O)NC1CC1 (stereo not drawn) [Cpd 179, 4-[7-(2-cyano-1-hydroxy-1-methyl-ethyl)imidazo[1,2-a]pyridin-3-yl]-N-cyclopropyl-2-(difluoromethoxy)-6-methoxy-benzamide] |
| > 500 | > 500 | 100 to 1000 | 10 to 100 | COc1cc(-c2cnc3cc(C4(OC)COC4)ccn23)cc(OC(F)F)c1C(=O)NC1CC1 [Cpd 212, N-cyclopropyl-2-(difluoromethoxy)-6-methoxy-4-[7-(3-methoxyoxetan-3-yl)imidazo[1,2-a]pyridin-3-yl]benzamide] |
| > 500 | > 500 | 100 to 1000 | 10 to 100 | COc1cc(-c2cnc3cc(C(C)(C)C#N)c(OCCO)cn23)cc(OC(F)F)c1C(=O)NC1CC1 [Cpd 221, 4-[7-(1-cyano-1-methyl-ethyl)-6-(2-hydroxyethoxy)imidazo[1,2-a]pyridin-3-yl]-N-cyclopropyl-2-(difluoromethoxy)-6-methoxy-benzamide] |
| 100 to 500 | > 500 | 100 to 1000 | 10 to 100 | COc1cc(-c2cnc3cc(C4(O)COC4)ccn23)cc(OC(F)F)c1C(=O)N[C@@H]1C[C@@H]1F [Cpd 223, 2-(difluoromethoxy)-N-[(1R,2S)-2-fluorocyclopropyl]-4-[7-(3-hydroxyoxetan-3-yl)imidazo[1,2-a]pyridin-3-yl]-6-methoxy-benzamide] |

More lines, now with the values behind:

| SMILES | IC50 (SIK2) [nM] | IC50 (SIK1) [nM] | EC50 [1] [nM] | IC50 (SIK3) [nM] |
| --- | --- | --- | --- | --- |
| COc1cc(-c2cnc3cc(C4(C#N)CN(C)C4)ccn23)cc(OC(F)F)c1C(=O)NC1CC1 [Cpd 121, 4-[7-(3-cyano-1-methyl-azetidin-3-yl)imidazo[1,2-a]pyridin-3-yl]-N-cyclopropyl-2-(difluoromethoxy)-6-methoxy-benzamide] | > 500 | > 500 | 1000 to 5000 | 10 to 100 |
| COc1cn2c(-c3cc(OC)c(C(=O)NC4CC4)c(OC(F)F)c3)cnc2cc1C1CCOCC1 [Cpd 167, N-cyclopropyl-2-(difluoromethoxy)-6-methoxy-4-(6-methoxy-7-tetrahydropyran-4-yl-imidazo[1,2-a]pyridin-3-yl)benzamide] | 100 to 500 | > 500 | 1000 to 5000 | 10 to 100 |
| COc1cc(-c2cnc3cc(C4CN(C(C)=O)C4)c(F)cn23)cc(OC(F)F)c1C(=O)NC1CC1 [Cpd 169, 4-[7-(1-acetylazetidin-3-yl)-6-fluoro-imidazo[1,2-a]pyridin-3-yl]-N-cyclopropyl-2-(difluoromethoxy)-6-methoxy-benzamide] | 100 to 500 | > 500 | 1000 to 5000 | 10 to 100 |
| COc1cc(-c2cnc3cc(C(C)(O)CN4CCOCC4)ccn23)cc(OC(F)F)c1C(=O)NC1CC1 (stereo not drawn) [Cpd 178, N-cyclopropyl-2-(difluoromethoxy)-4-[7-(1-hydroxy-1-methyl-2-morpholino-ethyl)imidazo[1,2-a]pyridin-3-yl]-6-methoxy-benzamide] | > 500 | > 500 | 100 to 1000 | 10 to 100 |
| COc1cc(-c2cnc3cc(C(C)(O)CN4CCCCC4)ccn23)cc(OC(F)F)c1C(=O)NC1CC1 (stereo not drawn) [Cpd 185, N-cyclopropyl-2-(difluoromethoxy)-4-[7-[1-hydroxy-1-methyl-2-(1-piperidyl)ethyl]imidazo[1,2-a]pyridin-3-yl]-6-methoxy-benzamide] | > 500 | > 500 | 100 to 1000 | 10 to 100 |
| COc1cc(-c2cnc3cc(C4CCCN4)ccn23)cc(OC(F)F)c1C(=O)NC1CC1 (stereo not drawn) [Cpd 188, N-cyclopropyl-2-(difluoromethoxy)-6-methoxy-4-(7-pyrrolidin-2-ylimidazo[1,2-a]pyridin-3-yl)benzamide] | 100 to 500 | > 500 | 100 to 1000 | 10 to 100 |
| COc1cc(-c2cnc3cc(C(C)(O)Cn4cccn4)ccn23)cc(OC(F)F)c1C(=O)NC1CC1 (stereo not drawn) [Cpd 192, N-cyclopropyl-2-(difluoromethoxy)-4-[7-(1-hydroxy-1-methyl-2-pyrazol-1-yl-ethyl)imidazo[1,2-a]pyridin-3-yl]-6-methoxy-benzamide] | > 500 | > 500 | 100 to 1000 | 10 to 100 |
| COc1cc(-c2cnc3cc(C4(O)CCOC4)ccn23)cc(OC(F)F)c1C(=O)NC1CC1 (stereo not drawn) [Cpd 213, N-cyclopropyl-2-(difluoromethoxy)-4-[7-(3-hydroxytetrahydrofuran-3-yl)imidazo[1,2-a]pyridin-3-yl]-6-methoxy-benzamide] | > 500 | > 500 | 100 to 1000 | 10 to 100 |
| COc1cc(-c2cnc3cc(C(C)(C)C4CCO4)ccn23)cc(OC(F)F)c1C(=O)NC1CC1 (stereo not drawn) [Cpd 229, N-cyclopropyl-2-(difluoromethoxy)-6-methoxy-4-[7-[1-methyl-1-(oxetan-2-yl)ethyl]imidazo[1,2-a]pyridin-3-yl]benzamide] | > 500 | > 500 | 100 to 1000 | 10 to 100 |
| COc1cc(-c2cnn3cc(C(C)(C)c4nc(C)no4)ccc23)cc(OC(F)F)c1C(=O)NC1CC1 [Cpd 248, N-cyclopropyl-2-(difluoromethoxy)-6-methoxy-4-[6-[1-methyl-1-(3-methyl-1,2,4-oxadiazol-5-yl)ethyl]pyrazolo[1,5-a]pyridin-3-yl]benzamide] | > 500 | > 500 | 100 to 1000 | 10 to 100 |
| COc1cc(-c2cnn3cc(C4(C#N)CCC4)ccc23)cc(OC(F)F)c1C(=O)N[C@@H]1C[C@@H]1F [Cpd 250, 4-[6-(1-cyanocyclobutyl)pyrazolo[1,5-a]pyridin-3-yl]-2-(difluoromethoxy)-N-[(1R,2S)-2-fluorocyclopropyl]-6-methoxy-benzamide] | 100 to 500 | > 500 | 100 to 1000 | 0.01 to 10 |
| COc1cc(-c2cnn3cc(C(C)(C)COCC(=O)N(C)C)ccc23)cc(OC(F)F)c1C(=O)N[C@@H]1C[C@@H]1F [Cpd 251, 2-(difluoromethoxy)-4-[6-[2-[2-(dimethylamino)-2-oxo-ethoxy]-1,1-dimethyl-ethyl]pyrazolo[1,5-a]pyridin-3-yl]-N-[(1R,2S)-2-fluorocyclopropyl]-6-methoxy-benzamide] | > 500 | > 500 | 100 to 1000 | 0.01 to 10 |
